Key:
[1] = system: cow foot rot disease; assay: treatment of cow foot rot disease; type: in vivo, cows; conditions: for Milk production (daily yield) / Total number of cured cows: n = 10
[2] = system: canine distemper; assay: treatment of canine distemper; type: in vivo, dogs; conditions: for Cure / Death: 14 days, 10 dogs treated
Protocol: Anemoside B4 injection prepared in example 3, with a concentration of 50 mg/mL.
Dogs suffering from canine distemper are cases received by various pet hospitals in Chengdu.
According to the clinical symptoms, canine distemper can be divided into early, middle and late stages.
The vomit is mucus or yellow liquid, while the stool is dark brown or covered with mucus. As the progress of the disease course, dogs with canine distemper often develop secondary bacterial infections due to their decreased resistance.
Anemoside B4 injection was intravenously injected, 2 mL/time in low-dose group, 4 mL/time in medium-dose group, 8 mL/time in high-dose group, once a day; anemoside B4 injection was intramuscularly injected, 1 mL/time in low-dose group, 2 mL/time in the middle-dose group, 4 mL/time in the high-dose group, twice a day; the treatment was kept for 14 days.

[3] = high-dose, intravenous injection 60 mL (50 mg/mL), once a day, 4 days
[4] = high-dose, pulvis 1.5 g, external application, once every other day, 4 times
[5] = high-dose, subcutaneous injection 15 mL (50 mg/mL) in affected limbs, once a day, 4 days
[6] = low-dose, intravenous injection 20 mL (50 mg/mL), once a day, 4 days
[7] = low-dose, pulvis 0.5 g, external application, once every other day, 4 times
[8] = low-dose, subcutaneous injection 5 mL (50 mg/mL) in affected limbs, once a day, 4 days
[9] = medium-dose, intravenous injection 40 mL (50 mg/mL), once a day, 4 days
[10] = medium-dose, pulvis 1.0 g, external application, once every other day, 4 times
[11] = medium-dose, subcutaneous injection 10 mL (50 mg/mL) in affected limbs, once a day, 4 days
[12] = high-dose, intramuscular injection 4 mL/time (50 mg/mL), twice a day
[13] = high-dose, intravenous injection 8 mL/time (50 mg/mL), once a day
[14] = low-dose, intramuscular injection 1 mL/time (50 mg/mL), twice a day
[15] = low-dose, intravenous injection 2 mL/time (50 mg/mL), once a day
[16] = medium-dose, intramuscular injection 2 mL/time (50 mg/mL), twice a day
[17] = medium-dose, intravenous injection 4 mL/time (50 mg/mL), once a day

For `C=C(C)[C@@H]1CC[C@]2(C(=O)O[C@@H]3O[C@H](CO[C@@H]4O[C@H](CO)[C@@H](O[C@@H]5O[C@@H](C)[C@H](O)[C@@H](O)[C@H]5O)[C@H](O)[C@H]4O)[C@@H](O)[C@H](O)[C@H]3O)CC[C@]3(C)[C@H](CC[C@@H]4[C@@]5(C)CC[C@H](O[C@@H]6OC[C@H](O)[C@H](O)[C@H]6O[C@@H]6O[C@@H](C)[C@H](O)[C@@H](O)[C@H]6O)[C@@](C)(CO)[C@@H]5CC[C@]43C)[C@H]12` [anemoside B4], the cure rate ([1]; high-dose subcutaneous injection group, middle- and high-dose pulvis groups) was “above 80%”, the “Milk production (daily yield)” value [1, 3] was 22.2 ± 1.5 kg/cow and the “Total number of cured cows” value [1, 3] was 6. For the same compound, the “Milk production (daily yield)” value [1, 4] was 25.9 ± 2.4 kg/cow, the “Total number of cured cows” value [1, 4] was 9 and the “Milk production (daily yield)” value [1, 5] was 25.6 ± 2.8 kg/cow. For the same compound, the “Total number of cured cows” value [1, 5] was 8, the “Milk production (daily yield)” value [1, 6] was 18.2 ± 1.4 kg/cow and the “Total number of cured cows” value [1, 6] was 4. The “Milk production (daily yield)” value [1, 7] was 22.6 ± 2.5 kg/cow, the “Total number of cured cows” value [1, 7] was 6 and the “Milk production (daily yield)” value [1, 8] was 20.4 ± 1.9 kg/cow. For the same compound, the “Total number of cured cows” value [1, 8] was 5, the “Milk production (daily yield)” value [1, 9] was 20.8 ± 2.2 kg/cow and the “Total number of cured cows” value [1, 9] was 5. The “Milk production (daily yield)” value [1, 10] was 24.2 ± 1.7 kg/cow, the “Total number of cured cows” value [1, 10] was 8 and the “Milk production (daily yield)” value [1, 11] was 22.1 ± 1.6 kg/cow. The “Total number of cured cows” value [1, 11] was 7, the “therapeutic effect on canine distemper (conclusion in words)” value ([2]; dogs) was “a better therapeutic effect on canine distemper” and the Cure [2, 12] was 5 dog. The Death [2, 12] was 5 dog, the Cure [2, 13] was 6 dog and the Death [2, 13] was 4 dog. For the same compound, the Cure [2, 14] was 3 dog, the Death [2, 14] was 7 dog and the Cure [2, 15] was 4 dog. The Death [2, 15] was 6 dog, the Cure [2, 16] was 4 dog and the Death [2, 16] was 6 dog. It also gave a Cure [2, 17] of 5 dog and a Death [2, 17] of 5 dog.
